In EPA's ToxValDB 9.5 (doi:10.2903/j.efsa.2006.58r):

Key:
Typhlodromus pyri = test: LR50; higher = less toxic; details: not reported; mortality
Aphidius rhopalosiphi = test: LR50; higher = less toxic; details: not reported; mortality
Anas platyrhynchos = details: acute; oral; unspecified; mortality
Apis mellifera = details: acute, mortality
Daphnia magna = details: chronic/long-term; duration: 21 days
Plant = details: not reported; no effects
Pontoscolex corethrurus = details: for NOEC: chronic/long-term
Pimephales promelas = details: chronic/long-term; duration: 32 days
Bibionidae = details: chronic/long-term; duration: 40 days
Oncorhynchus mykiss = details: acute; duration: 96 hours; mortality

`COc1cc(C)c(C(=O)c2c(OC)ccc(Br)c2C)c(OC)c1OC` [Metrafenone] showed an LR50 (Typhlodromus pyri) of over 500 g/ha, an LR50 (Aphidius rhopalosiphi) of over 300 g/ha and an NOEC (Colinus virginianus; reproduction developmental) of 125 mg/kg-day. It also gave an NOEC (Colinus virginianus; short-term, oral, diet) of over 948 mg/kg-day, an LD50 (Anas platyrhynchos) of over 2020 mg/kg-day and an LD50 (Apis mellifera; dermal) of over 100 µg/piece. The LD50 (Apis mellifera; oral, unspecified) was over 114 µg/piece, the NOEC (Daphnia magna) was 0.225 mg/L and the LEL (Plant) was 300 g/ha. The LC50 (Pontoscolex corethrurus; acute, mortality) was over 250 mg/kg, the NOEC (Pontoscolex corethrurus) was 10.4 mg/kg and the NOEC (Pontoscolex corethrurus; reproduction) was 3 mg/kg. It also gave an LD50 (Rattus norvegicus; acute, oral, mortality) of over 5000 mg/kg-day, an NOAEL (Rattus norvegicus; chronic, duration: 2 years, oral, histopathology: neoplastic) of 25 mg/kg-day and an NOAEL (Rattus norvegicus; reproduction developmental) of 811 mg/kg-day. It also gave an NOAEL (Rattus norvegicus; subchronic, duration: 13 weeks, oral, organ weight) of 43 mg/kg-day, an NOEC (Pimephales promelas) of 0.228 mg/L and an NOEC (Bibionidae) of 1 mg/L. The LC50 (Oncorhynchus mykiss) was over 0.82 µg/mL.
